Assay results from PMC11111955, “Safety and efficacy evaluation of halicin as an effective drug for inhibiting intestinal infections” (Frontiers in Pharmacology, 2024).

Columns and labels:
[1] = test system: Mouse spermatozoa; conditions: positive control group, 40 mg/kg cyclophosphamide
[2] = test system: mouse bone marrow cells; conditions: positive control group, 40 mg/kg cyclophosphamide
[3] = test system: bone marrow polychromatic erythrocytes; experiment: Micronucleus experiment of mammalian bone marrow cells; conditions: positive control group, 40 mg/kg cyclophosphamide
[4] = test system: TA100; experiment: Ames test; type: cell-based, Salmonella typhimurium; conditions: TA100, -S9, 1 μg/plate
Description: (§1) The experiments were performed in triplicate.

[5] = test system: WP2uvApKM101; experiment: Ames test; type: cell-based, Escherichia coli
Description: as §1

[6] = test system: TA97a; experiment: Ames test; type: cell-based, Salmonella typhimurium; conditions: -S9, 50 μg/plate
Description: as §1

[7] = test system: TA98; experiment: Ames test; type: cell-based, Salmonella typhimurium; conditions: TA98, -S9, 50 μg/plate
Description: as §1

`O=P1(N(CCCl)CCCl)NCCCO1` (centres unmarked) [Positive, cyclophosphamide] was tested, and the “Abnormal ratio (%)” value ([1]; male ICR mice) was 8.34 ± 0.47%, the “Number of sperm abnormality” value ([1]; male ICR mice, of 5 × 1,000 sperms observed) was 417 and the “Abnormal sperms counted ratio (%): Amorphous” value [1] was 48.33 ± 4.33%. The “Abnormal sperms counted ratio (%): Banana shape” value [1] was 10.58 ± 1.46%, the “Abnormal sperms counted ratio (%): Kinks tail” value [1] was 5.76 ± 0.94% and the “Abnormal sperms counted ratio (%): Large round head” value [1] was 9.37 ± 1.03%. The “Abnormal sperms counted ratio (%): No hook” value [1] was 10.07 ± 1.23%, the “Abnormal sperms counted ratio (%): Two head” value [1] was 5.52 ± 1.36% and the “Abnormal sperms counted ratio (%): Two tail” value [1] was 4.84 ± 1.99%. The “Chromosome aberration (%)” value [2] was 18.6 ± 7.67%, the “Number of cells with chromosome aberration” value ([2]; of 5 × 100 cells at metaphase) was 93 and the “PCE micronucleus (‰)” value ([3]; Female mice) was 18.8 ± 1.9 ‰. For the same compound, the PCE/RBC ([3]; Female mice) was 0.5 ± 0.04, the “PCE micronucleus (‰)” value ([3]; Male mice) was 18.8 ± 2.6 ‰ and the PCE/RBC ([3]; Male mice) was 0.51 ± 0.09.

`COS(C)(=O)=O` [MSM, methyl methanesulfonate] was tested, and the “Ames test bacterial counts” value [4] was 3,042 ± 69.3 and the “Ames test bacterial counts” value ([5]; WP2uvApKM101, -S9, 1 μg/plate) was 926 ± 45.3.

`Nc1ccc2cc3ccccc3cc2c1` [2-AT, 2-Aminoanthracene] was tested, and the “Ames test bacterial counts” value ([5]; WP2uvApKM101, +S9, 10 μg/plate) was 546 ± 26.9.

With `CN(C)c1ccc(N=NS(=O)(=O)O)cc1` [DDT, fenaminosulf] the “Ames test bacterial counts” value [6] was 3,451 ± 53.7 and the “Ames test bacterial counts” value [7] was 2,985 ± 76.4.
